Results on 28 compounds are retold here after patent US6500821B1, “4-amino-1-aryl-1,5-dihydropyrrol-2-ones and process for making” (Arzneimittelwerk Dresden GmbH, priority 1999, dated 2002).

In one series the test system is maximal electroshock. The series is described as follows: Anticonvulsive action, maximal electroshock (MES), mouse i.p. It is filed as in vivo. The following applies: for responders at 100 mg/kg / responders at 300 mg/kg: ip, read-out: Action, % of the protected animals. As to the method:
(§1) Compounds according to the present invention were tested in vivo for their anticonvulsive action as shown in Table 1 in mice by i.p. administration, or in rats administered orally according to the internationally customary standard (Pharmac. Weekblad, Sc.Ed. 14 132 (1992) and Antiepileptic Drugs, Third Ed., Raven Press, New York 1989). [table]
(In the maximal electroshock model the usual endpoint is tonic extension of the hind limbs.)

The next series concerns s.c. pentetrazole. The series is described as follows: Anticonvulsive action, s.c. pentetrazole (PTZ), mouse i.p. It is filed as in vivo. As to the method: as §1
Series [1] in a line: Octanol/water partition coefficient. It is filed as physicochemical. The following applies: for logP: read-out: log P (octanol/water partition coefficient).
A further series deals with Vogel Conflict Test. The series is described as follows: Vogel Conflict Test. The following applies: for Changed number of impulses to the control in % / dose from which an anxiolytic action was detected / equally effective dose: rat; for dose from which an anxiolytic action was detected / equally effective dose: p.o. Format: in vivo, rat. The source says:
In this model, continuous access to drinking water is withheld from rats for a certain time. After this period, free access is given to drinking water, but is coupled with a mild electrical stimulation. The conflict for the animals is between accepting the electrical stimulation or going without a drink.
The reactions to a conflict situation of this type are similar to the secondary phenomena of anxiety in man. The resulting avoidance reactions can be suppressed by anxiolytic substances. As a measure of the anxiolytic action, the number of tolerated current pulses of the animals treated with the test substance is assessed in comparison to the vehicle-treated control group.

[2] abbreviates: ip, dose 100 mg/kg, read-out: Action, % of the protected animals.
Where [3] appears, read: ip, dose 300 mg/kg, read-out: Action, % of the protected animals.

Broadly, the melting point is the temperature of the solid-liquid transition. `CC1CCN(C2=CC(=O)N(c3ccc(Cl)cc3)C2)CC1` [Compound 18, 1-(4-chlorophenyl)-4-(4-methylpiperidin-1-yl)-1,5-dihydropyrrol-2-one] registered a melting point of 194 to 196 °C. Moreover, the responders at 100 mg/kg in the series with maximal electroshock (dose 100 mg/kg) came to 66%. Also, the responders at 100 mg/kg in the series with s.c. pentetrazole (setting [2]) was found to be 66%.

Compound `COc1ccc(N2CC(N3CCOCC3)=CC2=O)cc1` [Compound 7, 1-(4-methoxyphenyl)-4-morpholin-4-yl-1,5-dihydropyrrol-2-one] had a melting point of 198 to 202 °C. The logP in series [1] came out at 0.74. For the same compound, the responders at 300 mg/kg in the series on maximal electroshock (dose 300 mg/kg) stood at 0%. Moreover, the responders at 300 mg/kg with s.c. pentetrazole (setting [3]) stood at 80%.

`O=C1C=C(N2CCCCC2)CN1c1ccc(F)c(Cl)c1` [Compound 16, 1-(3-chloro-4-fluorophenyl)-4-piperidin-1-yl-1,5-dihydropyrrol-2-one] had a melting point of 195 to 196 °C. In the series with maximal electroshock (dose 300 mg/kg), the responders at 300 mg/kg stood at 100%. In the series on s.c. pentetrazole (setting [3]), the responders at 300 mg/kg was 0%.

On to `CCN(CC)C1=CC(=O)N(c2ccc(Cl)cc2)C1` [Compound 23, 1-(4-chlorophenyl)-4-(diethylamino)-1,5-dihydropyrrol-2-one], for which the melting point fell in the range of 165 to 168 °C. For the same compound, in the series on maximal electroshock (dose 300 mg/kg), the responders at 300 mg/kg was determined as 50%. Also, in the series with s.c. pentetrazole (setting [3]), the responders at 300 mg/kg was 66%.

Consider `CCCC(CCC)C(=O)O` [Valproate, reference compound], for which the responders at 100 mg/kg stood at 0% in the series on maximal electroshock (dose 100 mg/kg) and 30% with s.c. pentetrazole (setting [2]).

As for `O=C1C=C(N2CCOCC2)CN1c1ccc(C(F)(F)F)cc1` [Compound 8, 4-morpholin-4-yl-1-(4-trifluoromethylphenyl)-1,5-dihydropyrrol-2-one], the melting point lay within 205 to 207 °C. In the series with maximal electroshock (dose 100 mg/kg), the responders at 100 mg/kg came to 66%. In addition, the responders at 100 mg/kg in the series on s.c. pentetrazole (setting [2]) was found to be 100%.

The compound `O=C1C=C(N2CCOCC2)CN1c1ccc(OC(F)(F)F)cc1` [Compound 9, 4-morpholin-4-yl-1-(4-trifluoromethoxyphenyl)-1,5-dihydropyrrol-2-one] registered a melting point of 148 to 153 °C. Moreover, in series [1], the logP is 2.45. Further, the responders at 100 mg/kg in the series with maximal electroshock (dose 100 mg/kg) was found to be 100%. The responders at 10 mg/kg with s.c. pentetrazole (ip, dose 10 mg/kg, read-out: Action, % of the protected animals) amounted to 50%.

Turning to `COCCN(CCOC)C1=CC(=O)N(c2ccc(Cl)cc2)C1` [Compound 24, 1-(4-chlorophenyl)-4-(bis(methoxyethyl)amino)-1,5-dihydropyrrol-2-one], the melting point lay in the range of 189 to 195 °C. Besides, in the series on maximal electroshock (dose 300 mg/kg), the responders at 300 mg/kg stood at 33%. The responders at 300 mg/kg in the series on s.c. pentetrazole (setting [3]) amounted to 66%.

`CC1CCCN(C2=CC(=O)N(c3ccc(Cl)cc3)C2)C1` (stereo not shown) [Compound 19, 1-(4-chlorophenyl)-4-(3-methylpiperidin-1-yl)-1,5-dihydropyrrol-2-one] gave a melting point of 188 to 189 °C. In addition, the logP in series [1] was 3.58. The responders at 300 mg/kg in the series on maximal electroshock (dose 300 mg/kg) came out at 0%. The responders at 100 mg/kg in the series with s.c. pentetrazole (setting [2]) was 40%.

`CN1C(=O)CN=C(c2ccccc2)c2cc(Cl)ccc21` [Diazepam, diazepam]: the “Changed number of impulses to the control in %” value (“Changed number … in %” for short) in the series on Vogel Conflict Test (0.1 mg/kg p.o.) is 94%; in the series on Vogel Conflict Test (0.3 mg/kg p.o.), 114%; with Vogel Conflict Test (1.0 mg/kg p.o.) it was 148%; in the series on Vogel Conflict Test (3 mg/kg p.o.), 167%.

For `O=C1CN=C(c2ccccc2Cl)c2cc([N+](=O)[O-])ccc2N1` [Clonazepam, clonazepam], the “Changed number … in %” value was determined as 122% in the series on Vogel Conflict Test (0.1 mg/kg p.o.), 128% in the series on Vogel Conflict Test (0.3 mg/kg p.o.) and 173% in the series on Vogel Conflict Test (1.0 mg/kg p.o.). Moreover, the “dose from which an anxiolytic action was detected / equally effective dose” value in the series with Vogel Conflict Test was 1 mg/kg.

For the compound `Cc1cccc(N2CC(N3CCCCC3)=CC2=O)c1` [Compound 12, 1-(3-methylphenyl)-4-piperidin-1-yl-1,5-dihydropyrrol-2-one], the melting point was 117 to 123 °C. The logP in series [1] worked out at 2.66. Further, the responders at 300 mg/kg with maximal electroshock (dose 300 mg/kg) was 0%. Also, the responders at 300 mg/kg with s.c. pentetrazole (setting [3]) came to 0%.

With `Cc1cccc(N2CC(N3CCOCC3)=CC2=O)c1` [Compound 2, 1-(3-methylphenyl)-4-morpholin-4-yl-1,5-dihydropyrrol-2-one], the logP in series [1] worked out at 1.46. The responders at 100 mg/kg in the series on maximal electroshock (dose 100 mg/kg) is 33%. Besides, the responders at 300 mg/kg in the series with s.c. pentetrazole (setting [3]) is 100%.

As to `O=C1C=C(N2CCCCC2)CN1c1ccc(F)cc1` [Compound 13, 1-(4-fluorophenyl)-4-piperidin-1-yl-1,5-dihydropyrrol-2-one], the melting point fell in the range of 214 to 216 °C. The logP in series [1] is 2.35. Moreover, the responders at 300 mg/kg in the series on maximal electroshock (dose 300 mg/kg) is 0%. The responders at 300 mg/kg with s.c. pentetrazole (setting [3]) is 0%.

In the case of `NC(=O)N1c2ccccc2C=Cc2ccccc21` [Carbamazepin, reference compound], the “Action, % of the protected animals” value was 100% with maximal electroshock (dose 100 mg/kg) and 0% with s.c. pentetrazole (dose 100 mg/kg).

Regarding `O=C1C=C(N2CCCCCC2)CN1c1ccc(Cl)cc1` [Compound 22, 1-(4-chlorophenyl)-4-azepam-1-yl-1,5-dihydropyrrol-2-one], in series [1], the “log P (octanol/water partition coefficient)” value worked out at 3.40. The “Action, % of the protected animals” value in the series with maximal electroshock (dose 300 mg/kg) and in the series with s.c. pentetrazole (dose 300 mg/kg) was 100% throughout.

As to `CN1CCN(C2=CC(=O)N(c3ccc(Cl)cc3)C2)CC1` [Compound 21, 1-(4-chlorophenyl)-4-(4-methylpiperazin-1-yl)-1,5-dihydropyrrol-2-one], the melting point was 194 to 197 °C. For the same compound, the responders at 100 mg/kg in the series on maximal electroshock (dose 100 mg/kg) was determined as 66%. For the same compound, in the series with s.c. pentetrazole (setting [2]), the responders at 100 mg/kg came to 100%.

For `O=C1C=C(N2CCOCC2)CN1c1ccc(F)cc1` [Compound 3, 1-(4-fluorophenyl)-4-morpholin-4-yl-1,5-dihydropyrrol-2-one], the melting point was in the range of 226 to 229 °C. Further, the responders at 100 mg/kg with maximal electroshock (dose 100 mg/kg) stood at 50%. Moreover, in the series on s.c. pentetrazole (setting [2]), the responders at 100 mg/kg is 33%.

On to `O=C1C=C(N2CCOCC2)CN1c1ccc(Br)cc1` [Compound 5, 1-(4-bromophenyl)-4-morpholin-4-yl-1,5-dihydropyrrol-2-one], for which the melting point was in the range of 230 to 233 °C. In addition, the logP in series [1] turned out to be 2.16. Besides, the responders at 100 mg/kg in the series with maximal electroshock (dose 100 mg/kg) is 33%. In addition, the responders at 100 mg/kg in the series on s.c. pentetrazole (setting [2]) worked out at 100%.

For `O=C1C=C(N2CCCC2)CN1c1ccc(Cl)cc1` [Compound 17, 1-(4-chlorophenyl)-4-pyrrolidin-1-yl-1,5-dihydropyrrol-2-one], the melting point lay in the range of 223 to 227 °C. Also, in series [1], the logP amounted to 2.6. For the same compound, the responders at 300 mg/kg in the series on maximal electroshock (dose 300 mg/kg) stood at 66%. Moreover, the responders at 300 mg/kg in the series with s.c. pentetrazole (setting [3]) is 0%.

`O=C1C=C(N2CCCCC2)CN1c1ccc(Cl)cc1` [Compound 14, 1-(4-chlorophenyl)-4-piperidin-1-yl-1,5-dihydropyrrol-2-one]: the logP in series [1] turned out to be 3.06. Moreover, the responders at 100 mg/kg in the series with maximal electroshock (dose 100 mg/kg) and in the series on s.c. pentetrazole (setting [2]) was 100% in each case.

With `Cc1ccc(N2CC(N3CCCCC3)=CC2=O)cc1` [Compound 15, 1-(4-methylphenyl)-4-piperidin-1-yl-1,5-dihydropyrrol-2-one], the melting point is 174 to 177 °C. Besides, the logP in series [1] came out at 2.62. The responders at 100 mg/kg with maximal electroshock (dose 100 mg/kg) was found to be 100%. For the same compound, the responders at 100 mg/kg in the series on s.c. pentetrazole (setting [2]) is 100%.

The compound `O=C1C=C(N2CCOCC2)CN1c1ccccc1Cl` [Compound 1, 1-(2-chlorophenyl)-4-morpholin-4-yl-1,5-dihydropyrrol-2-one] yielded a melting point of 154 to 156 °C. The responders at 100 mg/kg with maximal electroshock (dose 100 mg/kg) worked out at 0%. Moreover, the responders at 100 mg/kg in the series on s.c. pentetrazole (setting [2]) was determined as 0%. The “dose from which an anxiolytic action was detected / equally effective dose” value with Vogel Conflict Test is listed as 3 mg/kg.

As to `Cc1ccc(N2CC(N3CCOCC3)=CC2=O)cc1` [Compound 6, 1-(4-methylphenyl)-4-morpholin-4-yl-1,5-dihydropyrrol-2-one], in series [1], the logP came to 1.42. The responders at 300 mg/kg in the series with maximal electroshock (dose 300 mg/kg) worked out at 100%. Moreover, the responders at 100 mg/kg in the series on s.c. pentetrazole (setting [2]) is 100%.

`O=C1C=C(N2CCOCC2)CN1c1ccccc1` [Compound 25, 4-morpholin-4-yl-1-phenyl-1,5-dihydropyrrol-2-one] displayed a melting point of 161 to 164 °C. Moreover, in the series on maximal electroshock (dose 100 mg/kg), the responders at 100 mg/kg is 40%. Besides, the responders at 100 mg/kg with s.c. pentetrazole (setting [2]) turned out to be 66%.

For `CC1CCCCN1C1=CC(=O)N(c2ccc(Cl)cc2)C1` (stereo not shown) [Compound 20, 1-(4-chlorophenyl)-4-(2-methylpiperidin-1-yl)-1,5-dihydropyrrol-2-one], the melting point lay within 181 to 185 °C. The responders at 300 mg/kg in the series on maximal electroshock (dose 300 mg/kg) amounted to 66%. In the series on s.c. pentetrazole (setting [2]), the responders at 100 mg/kg stood at 40%.

Regarding `CN1CCN=C(c2ccccc2)c2cc(Cl)ccc21` [Medazepam, medazepam], the “anxiolytic action (in words)” value in the series on Vogel Conflict Test (dose range from 0.3 to 3 mg/kg p.o.) is “not possible to detect”. Besides, the “Changed number … in %” value is on record as 100% with Vogel Conflict Test (0.3 mg/kg p.o.), 131% in the series on Vogel Conflict Test (1.0 mg/kg p.o.) and 78% in the series with Vogel Conflict Test (3 mg/kg p.o.).

With `COc1cc(N2CC(N3CCOCC3)=CC2=O)cc(OC)c1OC` [Compound 11, 4-morpholin-4-yl-1-(3,4,5-trimethoxyphenyl)-1,5-dihydropyrrol-2-one], the melting point lay in the range of 179 to 182 °C. Further, the responders at 300 mg/kg in the series with maximal electroshock (dose 300 mg/kg) came to 0%. Further, the responders at 300 mg/kg with s.c. pentetrazole (setting [3]) was 66%.
